# Data: patent US20250171474A1, “CRYSTAL FORM OF […]” (Zhejiang Yangli Pharmaceutical Technology Co., Ltd., priority 2022, published 2025)
# Columns and labels:
# [1] = system: HepG2-luc orthotopic xenograft tumor; test: In vivo pharmacodynamics on orthotopic xenograft tumor model of human liver cancer HepG2; design: species or system Balb/C nude mice; settings: for Bioluminescence (Day 1) / Bioluminescence (Day 21): mean, n=6 (Table 8); for Bioluminescence (Day 21) / RBL (Day 21), relative tumor signal growth value / T/C (%) (Day 21) / TGI (%) (Day 21) / T/Cweight (%) / Tumor weight (Day 21): Day 21; for T/Cweight (%): TWtreatment/TWvehicle; for Tumor weight (Day 21): mean ± SEM, n=6
# Description: In this experiment, orthotopic xenograft tumor model of HepG2 in a nude mouse was used to evaluate the anti-tumor effect of the compound.
# Female Balb/C nude mice, 6 to 8 weeks old, weighing 18 to 22 g, fetal bovine serum […], EMEM medium (Cat. No. 30-2003), phosphate buffer, Antibiotic-Antimycotic (Cat. No. 15240-062), Matrigel, and trypsin.
# 1. Preparation of cell culture: HepG2-luc cells were cultured in monolayer in vitro. The culture conditions were that 10% heat-inactivated fetal bovine serum was added to EMEM medium and the cells were cultured in an incubator containing 5% CO2 at 37° C. Digestion with trypsin-EDTA was performed twice a week for passaging. When the cell saturation was 80% to 90%, the cells were digested with trypsin-EDTA, counted, and resuspended in PBS and Matrigel (PBS: Matrigel=1:1), and the density was 166.67×10^6 cells/mL.
# 2. Tumor cell inoculation and grouping: Animals were anesthetized by intramuscular injection of 60 mg/kg Zoletil 50 and 1.5 mg/kg xylazine. When the animals were under deep anesthesia, the animals were properly fixed, and the abdomen skin was cleaned with 75% alcohol cotton balls. An incision of about 10 mm was cut with surgery, and 0.03 mL (PBS: Matrigel=1:1) of HepG2-luc cells was orthotopically inoculated on the left lobe of the liver of each mouse, and then the incision on the muscle layer was sutured with absorbable catgut, and the incision on the skin was sutured with a stapler. After surgery, the animals were kept warm on a warming blanket until they woke up. To relieve the pain of the animals, 2 mg/kg of meloxicam (administered subcutaneously once a day) would be administered for 3 consecutive days after surgery. 15 animals were randomly selected to detect the growth of the signal. When the signal began to rise, animals were randomly divided into groups according to the value of the bioluminescence signal, and the administration of the drug was started.
# (§1) The experimental indicator is whether the tumor growth can be delayed or whether the tumor can be cured. After tumor inoculation, the bioluminescence signal and animal weight were detected once a week, which continued until the end of the observation period. The bioluminescence signal value can be used to calculate T/C (wherein T is the administration group, and C is the average intensity value of bioluminescence of the blank control group at the set time). Calculation formula of tumor growth inhibition rate (TGI): TGI (%)=[1−(Ti−T0)/(Vi−V0)]×100, wherein Ti is the average intensity of bioluminescence of the treatment group at the set time; T0 is the average intensity of bioluminescence at the starting point of administration. Vi is the average intensity of bioluminescence of the blank control group at the set time; V0 is the average intensity of bioluminescence at the starting point of administration.
# b. Tumor growth inhibition was calculated by T/Cweight=TWtreatment/TWvehicle.
# c. The p values were obtained by analyzing the tumor weight using one-way ANOVA between the vehicle group and the treatment groups.
# Hep3B cells = test: Anti-proliferative activity on Hep3B cell line (CellTiter-Glo); format: cell-based
# Description: EMEM medium, penicillin/streptomycin antibiotics were purchased from Wisent, and fetal bovine serum was purchased from Biosera. CellTiter-Glo (chemiluminescent cell viability assay reagent) reagent was purchased from Promega. The Hep3B cell line was purchased from the Cell Bank of the Chinese Academy of Sciences. Nivo multimode microplate reader (PerkinElmer).
# Hep3B cells (liver cancer) were seeded in a white 96-well plate with 80 μL of cell suspension per well containing 3000 Hep3B cells. The cell plate was incubated overnight in a carbon dioxide incubator. The compound to be tested was 5-fold diluted to the ninth concentration with a multi-channel pipette, that is, the compound to be tested was diluted from 2 mM to 5.12 nM, and an experiment for the sample assayed in duplicate was set up. 78 μL of culture medium was added to the middle plate. According to the corresponding position, 2 µL per well of the gradient-diluted compound was transferred to the middle plate, then 20 μL per well was transferred to the cell plate after mixing well. […] Another cell plate was prepared, and the signal value as the maximum value (Max value in the following equation) was read on the day of drug addition to participate in data analysis. […] A multimode microplate reader was used for reading. […] A multimode microplate reader was used for reading. […]
# HepG2 cells = test: Anti-proliferative activity on HepG2 cell line (CellTiter-Glo); format: cell-based, human
# Description: DMEM medium, penicillin/streptomycin antibiotics were purchased from Wisent, and fetal bovine serum was purchased from Biosera. CellTiter-Glo (chemiluminescent cell viability assay reagent) reagent was purchased from Promega. The HepG2 cell line was purchased from the Cell Bank of the Chinese Academy of Sciences. Nivo multimode microplate reader (PerkinElmer).
# HepG2 cells (liver cancer) were seeded in a white 384-well plate with […] of cell suspension per well containing 1000 HepG2 cells. The cell plate was incubated overnight in a carbon dioxide incubator. The compound to be tested was 3-fold diluted to the ninth concentration with a multi-channel pipette, that is, the compound to be tested was diluted from 200 µM to 30 nM, and an experiment for the sample assayed in duplicate was set up. […] of culture medium was added to the middle plate. According to the corresponding position, […] per well of the gradient-diluted compound was transferred to the middle plate, then […] per well was transferred to the cell plate after mixing well. […] Another cell plate was prepared, and the signal value as the maximum value (Max value in the following equation) was read on the day of drug addition to participate in data analysis. […] A multimode microplate reader was used for reading. […] A multimode microplate reader was used for reading. […]
# [2] = Animal weight change in the HepG2 orthotopic xenograft model; format: in vivo, Balb/C nude mice; settings: 1 and 3 mg/kg IV
# Source text: as §1
# [3] = Group 2, 1 mg/kg IV Day 0, 7, 14
# [4] = Group 3, 3 mg/kg IV Day 0, 7, 14
smiles,measurement,setting,value
O=[N+]([O-])c1cc2c(cc1Oc1cccnc1F)[C@H](OP(=O)(N1CC1)N1CC1)COC2 [Compound of formula (I)],inhibitory effect on tumor growth (in words),"[1]; 1 mg/kg, after 21 days of administration",significant inhibitory effect on tumor growth
same,Bioluminescence (Day 1),[1]; [3],3.51E+09 photons/second
same,Bioluminescence (Day 21),[1]; [3],4.35E+09 photons/second
same,Bioluminescence signal value of tumor tissue,"[1]; Group 2, 1 mg/kg IV, 0 days after administration (Table 10)",1.47E+09 photons/second
same,Bioluminescence signal value of tumor tissue,"[1]; Group 2, 1 mg/kg IV, 7 days after administration (Table 10)",4.34E+09 photons/second
same,Bioluminescence signal value of tumor tissue,"[1]; Group 2, 1 mg/kg IV, 14 days after administration (Table 10)",4.76E+09 photons/second
same,Bioluminescence signal value of tumor tissue,"[1]; Group 2, 1 mg/kg IV, 21 days after administration (Table 10)",4.52E+09 photons/second
same,"RBL (Day 21), relative tumor signal growth value","[1]; Group 2, 1 mg/kg IV",0.98
same,T/C (%) (Day 21),"[1]; Group 2, 1 mg/kg IV",10.04%
same,TGI (%) (Day 21),"[1]; Group 2, 1 mg/kg IV",96.97%
same,T/Cweight (%),"[1]; Group 2, 1 mg/kg IV",15.80%
same,Tumor weight (Day 21),"[1]; Group 2, 1 mg/kg IV",0.090 ± 0.036 g
same,Bioluminescence (Day 1),[1]; [4],3.51E+09 photons/second
same,Bioluminescence (Day 21),[1]; [4],1.81E+09 photons/second
same,Bioluminescence signal value of tumor tissue,"[1]; Group 3, 3 mg/kg IV, 0 days after administration (Table 10)",1.47E+09 photons/second
same,Bioluminescence signal value of tumor tissue,"[1]; Group 3, 3 mg/kg IV, 7 days after administration (Table 10)",2.77E+09 photons/second
same,Bioluminescence signal value of tumor tissue,"[1]; Group 3, 3 mg/kg IV, 14 days after administration (Table 10)",2.59E+09 photons/second
same,Bioluminescence signal value of tumor tissue,"[1]; Group 3, 3 mg/kg IV, 21 days after administration (Table 10)",2.16E+09 photons/second
same,"RBL (Day 21), relative tumor signal growth value","[1]; Group 3, 3 mg/kg IV",0.41
same,T/C (%) (Day 21),"[1]; Group 3, 3 mg/kg IV",4.22%
same,TGI (%) (Day 21),"[1]; Group 3, 3 mg/kg IV",106.21%
same,T/Cweight (%),"[1]; Group 3, 3 mg/kg IV",10.23%
same,Tumor weight (Day 21),"[1]; Group 3, 3 mg/kg IV",0.058 ± 0.013 g
same,"inhibitory effect on tumor growth (conclusion, in words)","[1]; HepG2 orthotopic model, 1 and 3 mg/kg IV",significant inhibitory effect on tumor growth
same,anti-tumor effect (in words),[1]; dose increased to 3 mg/kg,significantly enhanced
same,anti-proliferative activity on Hep3B (in words),Hep3B cells; Hep3B with low expression of AKR1C3,no anti-proliferative activity
same,IC50,"Hep3B cells; Homo sapiens, 72 h, Hep3B (low expression of AKR1C3), 3 days incubation",> 10000 nM
same,anti-proliferative activity on HepG2 (in words),HepG2 cells; HepG2 with high expression of AKR1C3,excellent anti-proliferative activity
same,IC50,"HepG2 cells; Homo sapiens, 120 h, HepG2 (high expression of AKR1C3), 5 days incubation",7.4 nM
same,animal weight in the administration group (in words),[2],does not decrease significantly
